Laboratory results reported in the supplement of paper PMC10307832.

Legend:
Assay in all cases: relative viability (nuclei count vs DMSO), 5 days (fraction); higher = more cells survive
Afatinib + Pemetrexed = compound: CN(C)C/C=C/C(=O)Nc1cc2c(Nc3ccc(F)c(Cl)c3)ncnc2cc1O[C@H]1CCOC1 [Afatinib] + Nc1nc2[nH]cc(CCc3ccc(C(=O)N[C@@H](CCC(=O)O)C(=O)O)cc3)c2c(=O)[nH]1 [Pemetrexed] (partner 0.2 µM)
Summary of the method: (§1)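 Each reported value is a median over duplicate plates. It expresses relative viability: treated-well nuclei count divided by vehicle-well nuclei count. Lung cancer cell lines in 1536-well plates were dosed by pin tool a day after seeding, alone with one drug or with a fixed anchor-drug dose plus five library-drug doses (not always all listed) in √10 steps, and nuclei were counted after 5 days.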

Afatinib + OSI-027 = compound: CN(C)C/C=C/C(=O)Nc1cc2c(Nc3ccc(F)c(Cl)c3)ncnc2cc1O[C@H]1CCOC1 [Afatinib] + COc1cccc2cc(-c3nc([C@H]4CC[C@H](C(=O)O)CC4)n4ncnc(N)c34)[nH]c12 [OSI-027] (partner 0.5 µM)
Summary of the method: as §1

Afatinib + Foretinib = compound: CN(C)C/C=C/C(=O)Nc1cc2c(Nc3ccc(F)c(Cl)c3)ncnc2cc1O[C@H]1CCOC1 [Afatinib] + COc1cc2c(Oc3ccc(NC(=O)C4(C(=O)Nc5ccc(F)cc5)CC4)cc3F)ccnc2cc1OCCCN1CCOCC1 [Foretinib] (partner 0.25 µM)
Summary of the method: as §1

Afatinib + AZD7762 = compound: CN(C)C/C=C/C(=O)Nc1cc2c(Nc3ccc(F)c(Cl)c3)ncnc2cc1O[C@H]1CCOC1 [Afatinib] + NC(=O)Nc1cc(-c2cccc(F)c2)sc1C(=O)N[C@H]1CCCNC1 [AZD7762] (partner 0.2 µM)
Summary of the method: as §1

Cell Line | relative viability (Afatinib + Pemetrexed; first compound 0.005 µM) | relative viability (Afatinib + Pemetrexed; first compound 0.01581 µM) | relative viability (Afatinib + Pemetrexed; first compound 0.05 µM) | relative viability (Afatinib + Pemetrexed; first compound 0.1581 µM) | relative viability (Afatinib + Pemetrexed; first compound 0.5 µM) | relative viability (Afatinib + OSI-027; first compound 0.005 µM) | relative viability (Afatinib + OSI-027; first compound 0.01581 µM) | relative viability (Afatinib + OSI-027; first compound 0.05 µM) | relative viability (Afatinib + OSI-027; first compound 0.1581 µM) | relative viability (Afatinib + OSI-027; first compound 0.5 µM) | relative viability (Afatinib + Foretinib; first compound 0.005 µM) | relative viability (Afatinib + Foretinib; first compound 0.01581 µM) | relative viability (Afatinib + Foretinib; first compound 0.05 µM) | relative viability (Afatinib + Foretinib; first compound 0.1581 µM) | relative viability (Afatinib + Foretinib; first compound 0.5 µM) | relative viability (Afatinib + AZD7762; first compound 0.005 µM) | relative viability (Afatinib + AZD7762; first compound 0.01581 µM) | relative viability (Afatinib + AZD7762; first compound 0.05 µM) | relative viability (Afatinib + AZD7762; first compound 0.1581 µM) | relative viability (Afatinib + AZD7762; first compound 0.5 µM)
COR-L 105 | 0.837 | 0.503 | 0.542 | 0.353 | 0.377 | 0.346 | 0.252 | 0.265 | 0.245 | 0.27 | 0.385 | 0.448 | 0.37 | 0.287 | 0.318 | – | – | – | – | –
LK-2 | 0.33 | 0.229 | 0.239 | 0.326 | 0.248 | 0.213 | 0.188 | 0.194 | 0.156 | 0.216 | 0.994 | 1.13 | 0.851 | 1.06 | 0.997 | 0.465 | 0.328 | 0.371 | 0.329 | 0.521
NCI-H727 | – | – | – | – | – | 0.699 | 0.447 | 0.511 | 0.49 | 0.56 | 0.82 | 0.588 | 0.762 | 0.709 | 0.752 | 0.574 | 0.467 | 0.527 | 0.515 | 0.543
RERF-LC-KJ | 0.466 | 0.442 | 0.484 | 0.481 | 0.453 | 0.527 | 0.439 | 0.448 | 0.336 | 0.318 | 0.844 | 0.86 | 0.82 | 0.8 | 0.794 | 1.01 | 0.827 | 0.865 | 0.84 | 0.778
NCI-H2023 | 0.222 | 0.209 | 0.231 | 0.189 | 0.208 | 0.38 | 0.354 | 0.394 | 0.351 | 0.279 | 0.811 | 0.892 | 0.42 | 0.333 | 0.562 | – | – | – | – | –
NCI-H322M | 0.563 | 0.534 | 0.523 | 0.531 | 0.509 | 0.511 | 0.422 | 0.463 | 0.356 | 0.397 | 0.765 | 0.566 | 0.493 | 0.535 | 0.449 | 0.433 | 0.407 | 0.389 | 0.402 | 0.348
NCI-H1666 | 0.85 | 0.768 | 0.843 | 0.704 | 0.69 | 0.88 | 0.759 | 0.657 | 0.581 | 0.612 | 0.932 | 0.812 | 0.761 | 0.725 | 0.774 | 0.824 | 0.776 | 0.824 | 0.608 | 0.76
NCI-H1648 | 0.99 | 1.1 | 0.458 | 0.431 | 0.426 | 0.253 | 0.266 | 0.298 | 0.219 | 0.27 | – | – | – | – | – | 0.735 | 0.596 | 0.531 | 0.58 | 0.546
NCI-H2087 | 0.763 | 0.668 | 0.664 | 0.671 | 0.652 | 0.731 | 0.507 | 0.652 | 0.753 | 0.383 | 1.19 | 1.16 | 1.24 | 1.15 | 0.842 | 1.15 | 1.45 | 1.27 | 1.31 | 1.21
LU99A | 0.158 | 0.192 | 0.18 | 0.206 | 0.181 | 0.294 | 0.297 | 0.295 | 0.287 | 0.292 | 0.957 | 0.818 | 0.831 | 0.77 | 0.785 | 0.238 | 0.41 | 0.37 | 0.257 | 0.293
HCC-366 | 0.16 | 0.173 | 0.146 | 0.196 | 0.168 | 0.947 | 0.965 | 0.969 | 0.824 | 0.788 | 0.916 | 0.949 | 0.868 | 0.937 | 0.914 | 0.194 | 0.285 | 0.259 | 0.337 | 0.264
EKVX | 0.318 | 0.271 | 0.254 | 0.187 | 0.185 | 0.565 | 0.509 | 0.438 | 0.149 | 0.231 | 0.838 | 0.428 | 0.453 | 0.129 | 0.318 | 0.638 | 0.368 | 0.373 | 0.315 | 0.865
NCI-H522 | 0.928 | 0.889 | 0.916 | 0.666 | 0.807 | 0.723 | 0.594 | 0.631 | 0.544 | 0.557 | – | – | – | – | – | 0.76 | 0.812 | 0.817 | 0.767 | 0.748
NCI-H1755 | 0.405 | 0.611 | 0.463 | 0.402 | 0.421 | 0.736 | 0.754 | 0.845 | 0.627 | 0.668 | 0.947 | 0.937 | 0.964 | 0.901 | 0.897 | 0.359 | 0.562 | 0.528 | 0.398 | 0.417
NCI-H647 | 0.174 | 0.169 | 0.179 | 0.188 | 0.107 | 0.582 | 0.629 | 0.487 | 0.705 | 0.554 | 1.21 | 1.1 | 1.21 | 1.11 | 1.14 | 0.32 | 0.426 | 0.403 | 0.525 | 0.466
LC-2-ad | 0.275 | 0.273 | 0.259 | 0.28 | 0.274 | 0.871 | 0.67 | 0.823 | 0.575 | 0.622 | 0.815 | 0.718 | 0.565 | 0.565 | 0.6 | 0.782 | 0.713 | 0.559 | 0.411 | 0.46
NCI-H1793 | 0.814 | 0.582 | 0.584 | 0.582 | 0.503 | 0.237 | 0.211 | 0.168 | 0.233 | 0.146 | 0.621 | 0.463 | 0.401 | 0.352 | 0.353 | 0.193 | 0.304 | 0.451 | 0.268 | 0.231
